In patent US20030152562A1, “Vitro micro-organs, and uses related thereto” (Yissum Research Development Company of the Hebrew …, priority 2001, published 2003):
“Also recorded” adds a separate entry of the source.

Experiments:
Assay type in all cases: cell-based
guinea-pig skin cultures = experiment: BrdU labeling assay of cell proliferation (DNA synthesis) in skin micro-organ cultures; details: FIG. 12
Experimental: Fresh skin was obtained after surgery, cleaned from underlying fat tissue and cut into 0.4×5 cm flaps, which are then transversely sectioned, using a tissue chopper or other suitable cutting means into 300 μm sections under sterile conditions so that the final tissue segments had dimensions of 4 mm in width and 0.3 mm in thickness (see FIG. 1). These micrograns were placed in a 24-well microplate in 400 μl of DMEM in the absence of serum under 5% CO2 at 37° C., under constant shaking at 12 rpm for periods of one to eight days. Twenty micro-explants were grown per well.
Micro-organ cultures were prepared according to Example I and proliferation of the cells was measured by analyzing the amount of DNA synthesis as follows. […]
The cultures were prepared and maintained in defined medium in similar growth conditions as described in Example I. Control samples were analyzed by immunocytochemistry to determine that the micro-organ culture was maintained in a manner that was similar to that occurring in vivo.
Duplicated samples of skin micro-cultures were treated with TGF-β at 2.5 ng/ml. A quantitative analysis of the number of BrdU labeled cells/explant was performed according to Example II.

epidermal cells = experiment: Inhibition of proliferation of epidermal cells
New born mouse skin = experiment: Hair shaft growth in new born mouse skin micro-organ cultures; details: skin from 30 hr-old mouse, 3 days in culture, 1 ng/ml EGF
Experimental: New born mouse skin was obtained after surgery, cleaned of underlying fat tissue and cut into 0.4×5 cm flaps, which were then transversely sectioned, using a tissue chopper or other suitable cutting devise into 300 μm sections. The micro-organs were placed in microplates in DMEM in the absence of serum under 5% CO2 at 37° C. under constant shaking for periods of 1 to 14 days. Certain of the micro-organ explants were contacted with a growth factor, e.g., FGF, which was added to the culture media. The medium was changed every 2 days.
New born “hairless” skin can be induced to produce hair shafts when grown in MC cultures.

## TGF-β
guinea-pig skin cultures; 2.5 ng/ml, guinea-pig skin cultures
  effect on cell proliferation / mitogenesis in skin micro-organ cultures: inhibitor of cell proliferation; also recorded: inhibition of mitogenesis
guinea-pig skin cultures; TGF-β at 2.5 ng/ml, skin micro-cultures in defined medium
  inhibition of DNA synthesis (number of BrdU labeled cells/explant) compared with controls: Greater than 90%

## Activin
Epidermal cells
  effect on proliferation of epidermal cells: inhibit proliferation of epidermal cells

## EGF: epidermal growth factor added to culture medium (NSDSECPLSHDGYCLHDGVCMYIEALDKYACNCVVGYIGERCQYRDLKWWELR; UniProt P01133 971-1023, looked up)
New born mouse skin
  hair shaft development in explants: development of hair shafts in the explants
